Counter-ions that a name gives are not always drawn.
How the values were obtained:
human FXa = molecular target: T1, human FXa (Homo sapiens, UniProt P00742); assay: Determination of human FXa inhibitory effect (IC50 value); type: biochemical; conditions: substrate S-2222, absorbance at 405 nm, room temperature, read-out: FXaIC50
T1 construct: purchased Enzyme Research Laboratories, Inc
Method: Determination of Human FXa Inhibitory Effect (IC50 Value)
To each well of a 96-well microplate, 10 μl of 5% DMSO solutions of each test compound, the concentrations of which were appropriately prepared stepwise, 40 μl of Tris buffer (100 mM Tris, 200 mM potassium chloride, 0.2% BSA, pH 7.4) and 10 μl of 0.0625 U/ml human FXa (Enzyme Research Laboratories, Inc. dissolved and diluted with Tris buffer) were added, and 40 μl of a 750 μM aqueous solution of S-2222 (Chromogenix Co.) was added. Absorbance at 405 nm was measured for 10 minutes at room temperature to determine an increase in absorbance (ΔOD/min). As a control, Tris buffer was used in place of the test compound.
The rate of inhibition (%) at the final concentration of the test compound calculated using the following equation and the final concentration of the test compound were plotted as ordinate and as abscissa, respectively on a logarithmic normal probability paper, to determine the 50% inhibition dose (IC^50 value). Rate of inhibition (%)=(1−(ΔOD/min) of test compound[…](ΔOD/min) of control)×100

[1] = Test for oral administration (plasma concentration); type: in vivo; conditions: 1 mg/kg, monkey, fasted, 1 mg/2 mL/kg as free form in 0.5% methyl cellulose, plasma 0.5-24 h, HPLC/MS/MS
Method: Test for Oral Administration
To a monkey which had been fasted for over 15 hours, each test compound was orally administered in a free form at a dose of 1 mg/2 mL/kg. The test compound was dissolved or suspended in a 0.5% methyl cellulose solution. Before and 0.5, 1, 2, 4, 8 and 24 hours after the administration, the blood was collected at a ratio of 9 volumes to 1 volume of […] (total 1 ml). The blood was centrifuged (3000 rpm, 10 minutes, 4° C.), and the plasma was collected by separation. The separated plasma was pre-treated, and was subjected to measurement with HPLC/MS/MS, to calculate the plasma concentration from the areas under peak of the internal standard material and the test compound given by SRM chromatography using a calibration curve.

Human blood plasma = assay: Determination of prothrombin time (PT); type: biochemical; conditions: concentration at which PT is doubled, Thromboplastin C Plus, linear regression
Method: Determination of Prothrombin Time (PT)
Human blood plasma (50 μl) was added to 50 μl of each test compound dissolved in 4% DMSO/physiological saline, and the mixture was pre-incubated at 37° C. for 1 minute. Subsequently, 100 μl of 0.5 U/ml Thromboplastin C Plus (Dade Behring) was added to initiate the reaction. The coagulation time was measured using Amelung KC-10A micro coagulometer (MC Medical). As a control, 4% DMSO/physiological saline was used in place of the test compound. The concentration at which PT is doubled (PTCT2) was calculated by linear regression.

T1 sequence (P00742 235-488 limits assumed): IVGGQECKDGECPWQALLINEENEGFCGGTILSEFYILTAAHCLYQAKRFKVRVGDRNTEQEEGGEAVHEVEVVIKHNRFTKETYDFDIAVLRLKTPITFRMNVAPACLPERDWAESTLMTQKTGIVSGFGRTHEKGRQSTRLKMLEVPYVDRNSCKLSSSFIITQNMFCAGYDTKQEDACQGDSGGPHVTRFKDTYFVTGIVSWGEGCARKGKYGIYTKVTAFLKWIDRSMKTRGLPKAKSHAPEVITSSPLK
T1 sequence (P00742 41-179 partner limits assumed): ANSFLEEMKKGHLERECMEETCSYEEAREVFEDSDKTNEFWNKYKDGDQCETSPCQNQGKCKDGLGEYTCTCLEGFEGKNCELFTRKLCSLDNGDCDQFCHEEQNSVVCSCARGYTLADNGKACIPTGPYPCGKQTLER

| Structure (SMILES) | IC50 (human FXa) [nM] | AUC [1] [ng·h/mL] | PTCT2 (Human blood plasma) [µM] |
| --- | --- | --- | --- |
| COCC(=O)N1CC[C@H](NC(=O)C(=O)Nc2ccc(Cl)cn2)[C@H](NC(=O)c2nc3c(s2)CN(C)CC3)C1.Cl [Compound A, N^1-(5-chloropyridin-2-yl)-N^2-((3R,4S)-1-(2-methoxyacetyl)-3-{[(5-methyl-4,5,6,7-tetrahydrothiazolo[5,4-c]pyridin-2-yl)carbonyl]amino}piperidin-4-yl)ethanediamide hydrochloride, reference compound] | 2.3 | 157 | 0.37 |
| CN1CCc2nc(C(=O)N[C@@H]3CN(C=O)CC[C@@H]3NC(=O)C(=O)Nc3ccc(Cl)cn3)sc2C1 [Example 8, N^1-(5-chloropyridin-2-yl)-N^2-((3R,4S)-1-formyl-3-{[(5-methyl-4,5,6,7-tetrahydrothiazolo[5,4-c]pyridin-2-yl)carbonyl]amino}piperidin-4-yl)ethanediamide hydrochloride] | 2.2 | 826 | 0.26 |
| O=CN1CC[C@H](NC(=O)C(=O)Nc2ccc(Cl)cn2)[C@H](NC(=O)c2nc3c(s2)COCC3)C1 [Example 38, N^1-(5-chloropyridin-2-yl)-N^2-((3R,4S)-3-{[(6,7-dihydro-4H-pyrano[4,3-d]thiazol-2-yl)carbonyl]amino}-1-formylpiperidin-4-yl)ethanediamide] | 3 | 880 | 0.50 |

Stronger by IC50 (human FXa), values ahead:

| IC50 (human FXa) [nM] | AUC [1] [ng·h/mL] | Structure (SMILES) | PTCT2 (Human blood plasma) [µM] |
| --- | --- | --- | --- |
| 1.6 | 482 | CC(=O)N1CC[C@H](NC(=O)C(=O)Nc2ccc(Cl)cn2)[C@H](NC(=O)c2nc3c(s2)CN(C)CC3)C1 [Example 9, N^1-((3R,4S)-1-acetyl-3-{[(5-methyl-4,5,6,7-tetrahydrothiazolo[5,4-c]pyridin-2-yl)carbonyl]amino}piperidin-4-yl)-N^2-(5-chloropyridin-2-yl)ethanediamide hydrochloride] | 0.25 |
| 0.9 | 899 | CN1CCc2nc(C(=O)N[C@@H]3CN(C=O)CC[C@@H]3NC(=O)C(=O)Nc3ccc(Cl)s3)sc2C1 [Example 23, N^1-(5-chlorothiophen-2-yl)-N^2-((3R,4S)-1-formyl-3-{[(5-methyl-4,5,6,7-tetrahydrothiazolo[5,4-c]pyridin-2-yl)carbonyl]amino}piperidin-4-yl)ethanediamide hydrochloride] | 0.14 |

From patent US8088796B2, “Triamine derivative” (Daiichi Sankyo Company, Limited, priority 2005, dated 2012)
